“And” between values parts separate entries of the source, which are not always exact repeats. Equal entries are not always repeated. Where two headings read alike, the source gives them in different places.
What was measured:
[1] = system: lung slices obtained from ovalbumin-sensitized guinea pigs; assay: Ovalbumin-induced airway constriction in lung slices from ovalbumin-sensitized guinea pigs; assay type: cell-based, guinea pig; parameters: key to OVA-induced airway constriction response (Figure 6): max constriction as % of initial (baseline) airway luminal area; conditions: 0.1 µM Fenoterol + 25 µM Cmpd-6, Exp1-5
Text: All curve fits were generated using the software program GraphPad Prism. Data are represented as mean ± SEM of 4–5 guinea pigs (see Table 2 for statistical analyses).
Outbred, male, specified pathogen-free Dunkin Hartley guinea pigs (Charles River Laboratory) weighing 200 to 400 g were used. The animals were housed in pairs under a 12-hour light/dark cycle in a temperature- and humidity-controlled room with food and tap water ad libitum. For studies in the guinea pig model of allergic asthma, animals were actively IgE-sensitized to ovalbumin by injecting a suspension containing 100 μg/mL ovalbumin and 100 mg/mL Al(OH)3 in saline. Each animal was injected with 1.0 mL of suspension: 0.5 mL was injected i.p. and 0.5 mL was divided over 7 s.c. sites close to lymph nodes in the neck, paws, and lumbar regions ([24]). Animals were euthanized at least 4 weeks after sensitization.
(§1) Precision-cut lung slices were prepared as described previously ([61], [62]). A 3% solution of low melting-point agarose (Gerbu Biotechnik GmbH) in ultrapure water was prepared by heating it a microwave until fully dissolved. […] After filling, the lungs were covered with ice for 30 minutes to solidify the agarose for slicing. […] Lung slices were cut at a thickness of 500 μm and washed several times with slicing buffer to remove debris and washout the isoproterenol. Slices were incubated overnight in a 60 mm dish in sterile incubation buffer: MEM composed of lung slice buffer supplemented with 0.5 mM sodium pyruvate, 1 mM glutamine (Gibco), MEM-amino acids mixture (1:50), MEM-vitamins mixture (1:100; Gibco), and penicillin-streptomycin (1:100; Gibco), pH = 7.2, at 37°C in a CO2- and humidity-controlled atmosphere.
(§2) After washing the slices in medium, individual guinea pig lung slices were mechanically maintained with a Teflon ring with an inner diameter of 7 mm and covered with 1 mL of incubation buffer. […] Image acquisition software (NIS-Elements, Nikon) was used to quantify airway luminal area. Images of the airways were acquired every 2 seconds during the whole course of the experiment, starting 2 minutes before the addition of any agent to allow for baseline measurements of the airway caliber. For each methacholine or ovalbumin concentration, the maximal airway constriction was expressed as percentage of the initial (baseline) airway luminal area and plotted against that concentration.

human lung slices = assay: Methacholine-induced airway constriction in human lung slices; assay type: cell-based; parameters: key to MCh-induced airway constriction response (Figure 7): % of initial airway luminal area; conditions: for MCh-induced airway constriction response (Figure 7): 1 µM Fenoterol + 25 µM Cmpd-6, donor 1-4
Text: All curve fits were generated using the software program GraphPad Prism. Data are represented as mean ± SEM of 4 human donors (see Table 3 for statistical analyses).
Precision-cut human lung slices were purchased from AnaBios and stored in a liquid nitrogen tank. Lung tissue was obtained postmortem and consent for research was obtained by AnaBios for all donors. Characteristics of the donors of the lung tissue are shown in Supplemental Table 2. Slices were rapidly thawed following instructions from AnaBios.
After washing, individual human lung slices were mechanically maintained with a Teflon ring with an inner diameter of 7 mm and covered with 1 mL of incubation buffer. […] Image acquisition software (NIS-Elements, Nikon) was used to quantify airway luminal area. […] Airway constriction in response to each methacholine concentration was expressed as percentage of the initial airway luminal area.

guinea pig lung slices = assay: Methacholine-induced airway constriction in guinea pig lung slices; assay type: cell-based; conditions: for EC50: read-out: MCh EC50
Description: All curve fits were generated using the software program GraphPad Prism. Data are represented as mean ± SEM obtained from 6 guinea pigs.
as §1, §2

guinea pig β2AR = guinea pig β2AR (Cavia porcellus, UniProt Q8K4Z4); assay: 125I-CYP radioligand competition binding, guinea pig β2AR; conditions: Cmpd-6 [1 uM]
Sequence of guinea pig β2AR (Q8K4Z4 whole entry): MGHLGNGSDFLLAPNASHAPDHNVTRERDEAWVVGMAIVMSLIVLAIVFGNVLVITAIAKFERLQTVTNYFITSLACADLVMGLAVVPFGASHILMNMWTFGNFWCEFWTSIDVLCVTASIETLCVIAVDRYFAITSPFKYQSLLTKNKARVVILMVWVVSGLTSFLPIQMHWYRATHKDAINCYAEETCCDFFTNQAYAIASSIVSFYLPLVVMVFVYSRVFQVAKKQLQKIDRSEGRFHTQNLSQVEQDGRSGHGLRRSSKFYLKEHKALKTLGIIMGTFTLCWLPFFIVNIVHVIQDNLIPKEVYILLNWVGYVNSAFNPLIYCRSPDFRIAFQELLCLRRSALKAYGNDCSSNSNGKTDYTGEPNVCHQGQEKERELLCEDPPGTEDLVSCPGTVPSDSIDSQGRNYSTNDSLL

COc1ccc(Sc2ccc(S(=O)(=O)N(C)C(C)C)cc2C(=O)N[C@H](CC(N)=O)Cc2ccc(C(C)(C)C)cc2)cc1 [Cmpd-6]
OVA-induced airway constriction response (Figure 6) ([1]; [OVA] 0.001 ng/ml): 101.6 and 100.0 and 98.0 and 99.2 and 107.5 | OVA-induced airway constriction response (Figure 6) ([1]; [OVA] 0.01 ng/ml): 101.3 and 100.0 and 95.9 and 96.7 and 107.5 | OVA-induced airway constriction response (Figure 6) ([1]; [OVA] 0.1 ng/ml): 101.6 and 100.0 and 97.5 and 97.8 and 107.5 | OVA-induced airway constriction response (Figure 6) ([1]; [OVA] 1 ng/ml): 101.6 and 99.9 and 95.4 and 99.0 and 107.5 | OVA-induced airway constriction response (Figure 6) ([1]; [OVA] 10 ng/ml): 101.3 and 109.6 and 95.4 and 102.0 and 106.4 | OVA-induced airway constriction response (Figure 6) ([1]; [OVA] 100 ng/ml): 102.3 and 105.5 and 95.6 and 99.3 and 107.0 | OVA-induced airway constriction response (Figure 6) ([1]; [OVA] 1000 ng/ml): 102.2 and 108.2 and 105.1 and 101.8 | OVA-induced airway constriction response (Figure 6) ([1]; [OVA] 10000 ng/ml): 101.8 and 96.8 and 105.1 and 98.0 and 79.6 | OVA-induced airway constriction response (Figure 6) ([1]; [OVA] 100000 ng/ml): 101.6 and 81.6 and 100.1 and 89.5 and 64.4 | OVA-induced airway constriction response (Figure 6) ([1]; [OVA] 1000000 ng/ml): 101.0 and 77.3 and 94.7 and 90.3 and 74.1 | MCh Emax (human lung slices; 1 μM Fenoterol + 25 μM Cmpd-6): 26.5 ± 4.4^A % | MCh pD2 (human lung slices; 1 μM Fenoterol + 25 μM Cmpd-6): 5.52 ± 0.24^B –log M | MCh-induced airway constriction response (Figure 7) (human lung slices; -Log [MCh] 3.5): 81.9 and 70.9 and 77.9 and 77.7 | MCh-induced airway constriction response (Figure 7) (human lung slices; -Log [MCh] 4): 85.4 and 70.2 and 85.0 and 81 | MCh-induced airway constriction response (Figure 7) (human lung slices; -Log [MCh] 4.5): 87.4 and 88.5 and 81.1 and 82.0 | MCh-induced airway constriction response (Figure 7) (human lung slices; -Log [MCh] 5): 88.4 and 90.1 and 84.2 and 85.0 | MCh-induced airway constriction response (Figure 7) (human lung slices; -Log [MCh] 5.5): 89.6 and 91.5 and 87.5 and 90.7 | MCh-induced airway constriction response (Figure 7) (human lung slices; -Log [MCh] 6): 90.7 and 94.3 and 90.0 and 93.1 | MCh-induced airway constriction response (Figure 7) (human lung slices; -Log [MCh] 6.5): 93.1 and 102.4 and 95.5 and 94.0 | MCh-induced airway constriction response (Figure 7) (human lung slices; -Log [MCh] 7): 93.8 and 102.2 and 98.0 and 97.4 | MCh-induced airway constriction response (Figure 7) (human lung slices; -Log [MCh] 7.5): 95.1 and 104.8 and 98.8 and 98.9 | MCh-induced airway constriction response (Figure 7) (human lung slices; -Log [MCh] 8): 99.2 and 103.1 and 100.8 and 101.6 | MCh-induced airway constriction response (Figure 7) (human lung slices; -Log [MCh] 8.5): 96.5 and 109.1 and 101.7 and 103.0 | MCh-induced airway constriction response (Figure 7) (human lung slices; -Log [MCh] 9): 95.6 and 107.7 and 98.0 and 98.3 | Enhancement of the β2-agonist responsiveness (human lung slices; 25 μM Cmpd-6 + 1 μM fenoterol vs 10 μM fenoterol): 10 fold | MCh Emax (guinea pig lung slices; 1 μM Fenoterol + 25 μM Cmpd-6): 112.3 ± 9.5% | EC50 (guinea pig lung slices; 1 μM Fenoterol + 25 μM Cmpd-6): 590 ± 90 nM | MCh Emax (guinea pig lung slices; 10 μM Fenoterol + 25 μM Cmpd-6): 100.9 ± 3.2% | EC50 (guinea pig lung slices; 10 μM Fenoterol + 25 μM Cmpd-6): 980 ± 120 nM | Augmentation of airway smooth muscle responsiveness to fenoterol (guinea pig lung slices; 25 μM Cmpd-6): 10 fold | MCh Emax (guinea pig lung slices; 25 μM Cmpd-6 alone): 100.0 ± 2.0% | EC50 (guinea pig lung slices; 25 μM Cmpd-6 alone): 280 ± 50 nM | 125I-CYP binding, ISO competition curve (Figure 4B) (guinea pig β2AR; Log [ISO] (M) -4.49485): 1.389 and 1.151 and 1.419 and 1.486 and 1.375 | 125I-CYP binding, ISO competition curve (Figure 4B) (guinea pig β2AR; Log [ISO] (M) -5.69897): 11.9867 and 9.239 and 16.2618 and 13.198 and 14.4523 | 125I-CYP binding, ISO competition curve (Figure 4B) (guinea pig β2AR; Log [ISO] (M) -6.90309): 60.3981 and 44.4601 and 52.8751 and 61.5704 and 63.6634 | 125I-CYP binding, ISO competition curve (Figure 4B) (guinea pig β2AR; Log [ISO] (M) -7.50515): 85.4929 and 72.4739 and 91.4188 and 87.166 and 89.8825 | 125I-CYP binding, ISO competition curve (Figure 4B) (guinea pig β2AR; Log [ISO] (M) -8.70927): 98.0858 and 100.299 and 96.4593 and 97.8108 and 99.3392 | 125I-CYP binding, ISO competition curve (Figure 4B) (guinea pig β2AR; Log [ISO] (M) -9.31133): 102.219 and 97.3579 and 98.2032 and 100.895 and 101.354 | 125I-CYP binding, ISO competition curve (Figure 4B) (guinea pig β2AR; Log [ISO] (M) -9.91339): 101.18 and 98.3743 and 98.3138 and 101.016 and 101.111 | 125I-CYP binding, ISO competition curve (Figure 4B) (guinea pig β2AR; Log [ISO] (M) -11 (DMSO)): 99.0003 and 102.579 and 98.6421 and 100.222 and 97.6049

Reference: article PMC10503797, “Allosteric modulator potentiates β2AR agonist–promoted bronchoprotection in asthma models” (The Journal of Clinical Investigation, 2023)
